Results as given in patent US7468370B2, “[1,7]naphthyridines as PDE4 inhibitors” (Novartis AG, priority 2002, dated 2008).
Counter-ions that a name gives are not always drawn.

Columns and labels:
[1] = molecular target: T1, human PDE4D (Homo sapiens, UniProt Q08499); experiment: PDE4 Isoenzyme Inhibition Assay (Scintillation Proximity Assay, [3H]-cAMP); assay type: biochemical; conditions: recombinant 6His-tagged human PDE4D3 expressed in Sf21 cells; 1 μM cAMP; 1% DMSO; room temperature
T1 construct: PDE4 cDNA constructs containing the coding regions of the three isoenzymes; made in house; host or cells: Sf21 (Spodoptera frugiperda) insect cells, baculovirus (Bac-To-Bac)
T1 sequence (Q08499 1-673 isoform Q08499-2): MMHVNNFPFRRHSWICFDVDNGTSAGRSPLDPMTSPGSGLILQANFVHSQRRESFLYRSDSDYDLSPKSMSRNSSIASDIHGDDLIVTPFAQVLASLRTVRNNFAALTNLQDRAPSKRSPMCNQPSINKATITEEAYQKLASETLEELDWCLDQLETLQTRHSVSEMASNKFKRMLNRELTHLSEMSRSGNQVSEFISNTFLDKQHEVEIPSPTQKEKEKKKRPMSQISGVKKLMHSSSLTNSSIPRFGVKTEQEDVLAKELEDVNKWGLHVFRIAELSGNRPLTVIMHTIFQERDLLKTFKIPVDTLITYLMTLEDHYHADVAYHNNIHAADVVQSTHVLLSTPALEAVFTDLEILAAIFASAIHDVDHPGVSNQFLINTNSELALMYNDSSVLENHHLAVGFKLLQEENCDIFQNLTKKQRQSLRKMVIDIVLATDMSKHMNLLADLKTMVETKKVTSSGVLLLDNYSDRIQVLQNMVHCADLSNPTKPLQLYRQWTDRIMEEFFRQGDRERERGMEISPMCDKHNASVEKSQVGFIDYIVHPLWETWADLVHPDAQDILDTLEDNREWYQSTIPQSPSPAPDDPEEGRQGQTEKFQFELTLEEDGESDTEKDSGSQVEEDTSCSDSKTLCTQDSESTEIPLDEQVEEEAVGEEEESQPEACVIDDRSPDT
Protocol: PDE4 Expression: Sf21 cells are grown to a density of 2×10^6 cells/ml and infected with human PDE4A, PDE4B or PDE4D3 containing baculovirus to a multiplicity of infection (m.o.i.) of 1 for 72 hours. The infected cells are harvested by centrifugation at 1,400 g for 4 minutes at 4° C. and the cell pellets are frozen at −80° C. Sf21 (Spodoptera frugiperda 21) insect cells are routinely maintained at densities between 3×105 and 3×10^6 cells/ml in SF00 Serum Free Medium (Invitorgen Life Technologies). Sf21 cells (1×109) are resuspended in 100 ml cold (4° C.) Lysis Buffer (50 mM Na2HP04, 200 mM NaCl, 10 mM Imidazole). Cells are incubated on ice for 30 minutes then centrifuged at 15,000 g for 20 minutes at 4° C.
PDE4 Purification: The 6 Histidine-tagged PDE4 proteins are isolated from crude cell lysates by a batch-wise Ni-NTA purification strategy (QIAGEN). N-NTA resin is first pre-rinsed to remove ethanol preservative and equilibrated with Lysis Buffer. Cell lysate is added, (10 ml 50% Ni-NTA slurry resin per 50 ml lysate), and gently rotated on a mixer at 4° C. for 1-2 h. The sample is then centrifuged at 1,000 g for 5 minutes at 4° C. using Denley benchtop centrifuge. The supernatant is removed and the resin is washed 3 times with 50 ml ice cold Wash Buffer (50 mM Na2HP04, 300 mM NaCl and 20 mM imidazole) followed by centrifugation at 1,000 g for 5 minutes at 4° C. The 6His-tagged protein is eluted from the resin with 3×5 ml ice cold Elution Buffer (50 mM NaH2PO4, 300 mM NaCl, 250 mM imidazole) and collected by centrifugation at 1,000 g for 5 minutes at 4° C. The supernatants are then pooled before buffer exchange and concentration using a VivaScience 20 ml 5K 0.2 μM Concentrator. Samples are aliquoted and stored at −20° C.
PDE4 Assay: The assay is based on Amersham Pharmacia Biotech Scintillation Proximity Assay (SPA) technology. Enzyme is diluted with enzyme dilution buffer (10 mM Tris-HCl, pH 7.5 containing 1 mM EDTA) in order to obtain between 10-30% total substrate hydrolysis during the assay. The enzymatic reaction is started by adding 10 μl diluted enzyme to 80 μl substrate (0.1 μCi [3H]-cAMP, 1 μM cAMP) and 10 μl inhibitor solution in a 96-well microtiter plate. After 30-60 minutes incubation at room temperature the reaction is stopped by adding 50 μl PDE SPA beads (20 mg/ml). After 30 minutes the plate is centrifuged (3000 g, 10 minutes) and counted (Packard TopCount).
The concentration of DMSO is kept constant at 1% (v/v) throughout the assay. The concentration at which 50% inhibition occurs (IC50) is determined from inhibition—concentration curves in a conventional manner.

SMILES	melting point [°C]	IC50 [1] [nM]
N#Cc1cccc(-c2nc(N3CCNCC3)cc3cccnc23)c1 (as salt: hydrochloride) [Example 4, 3-(6-Piperazin-1-yl-[1,7]naphthyridin-8-yl)-benzonitrile]	> 250	–
N#Cc1cccc(-c2nc(N3CCC(O)C3)cc3cccnc23)c1 (centres unmarked) [Example 1, 3-[6-(3-Hydroxy-pyrrolidin-1-yl)-[1,7]naphthyridin-8-yl]-benzonitrile]	132 to 133	1
N#Cc1cccc(-c2nc(N3CCC(C(=O)[O-])CC3)cc3cccnc23)c1.[Li+] [Example 3, 1-[8-(3-Cyano-phenyl)-[1,7]naphthyridin-6-yl]-piperidine-4-carboxylic acid, Lithium salt]	> 200	3.1
N#Cc1cccc(-c2nc(N3CCOCC3)cc3cccnc23)c1 [Example 12]	–	2.5
CN1CCN(c2cc3cccnc3c(-c3cccc(C#N)c3)n2)CC1 [Example 15]	–	10.4
O=C(O)C1CCN(c2cc3cccnc3c(-c3ccc(F)c(Cl)c3)n2)CC1 [Example 39]	–	8
